Laboratory results reported in PMC8217011, “Natural brominated phenoxyphenols kill persistent and biofilm-incorporated cells of MRSA and other pathogenic bacteria” (Applied Microbiology and Biotechnology, 2020).
Several values for one entry are separate records, joined by “and”; a condition that tells them apart may be missing. Identical values can stand only once.

Columns and labels:
[1] = test system: stationary phase-induced persistent cells of MRSA strain Mu50; test: Persister killing kinetics (CFU plating); type: cell-based, Staphylococcus aureus; conditions: start 10^8 CFU/mL
Procedure: For persister killing kinetics, cells were grown overnight until a density of OD600 nm > 5.0 was reached and then washed three times with PBS. Next, cell density was adjusted to 10^8 CFU/mL in 5 mL PBS. […] Analysis was performed as described above.

gram-negative bacteria = test: MIC determination, summary over gram-negative strains; type: cell-based; conditions: colistin concentration of 0.1 μM (0.12 μg/mL)
Procedure: (§1) The minimal inhibitory concentration (MIC) has been determined according to the CSLI guidelines (CLSI [2012]). Briefly, in a sterile polystyrene U-bottom 96-well plate, a 2-fold serial dilution ranging from 100 to 0.78 μM of testing compounds has been prepared in 50 μL MHB. A freshly inoculated S. aureus culture was grown until OD600 nm of approx. 0.6 and diluted to 10^6 CFU/mL in MHB. Finally, 50 μL of the latter cell suspension was added to each well and then incubated statically for 18–24 h at 37 °C. MIC was determined using BacTiterGlo ATP assay (Promega, Madison, WI, USA) and Tecan Infinite F200 Pro (Tecan, Männedorf, Switzerland). Moxifloxacin and DMSO were used as positive and negative control, respectively. Sublethal concentrations of colistin (0.1 μM) were used in some experiments to increase the permeability of the gram-negative cell envelope for compound testing. For E. cloacae, a broth microdilution assay was performed using a serial 2-fold dilution in 96-well flat-bottomed plates (Falcon, BD Bioscience, Heidelberg) of both PPs in broth LB medium (Roth, Karlsruhe) at a concentration range of 50–0.024 μM.

[2] = test system: Escherichia coli ATCC 25922; test: MIC determination (microbroth dilution); type: cell-based; conditions: colistin alone
Procedure: (§2) Cultures were, if not stated differently, incubated at 37 °C with aeration and shaking (150 rpm) in Mueller-Hinton broth (MHB). Bacteria were freshly incubated at the next morning from an overnight pre-culture for actively growing bacteria to an OD600 nm of approx. 0.6. To ensure persistent growth form, the bacteria were grown overnight until a density at OD600 nm > 5.0 was obtained. For biofilm growth, some colonies from a Mueller-Hinton agar (MHA) plate were picked and resuspended in MHB. Cell density has been adjusted to OD600 nm = 0.8, and cells were sown into a flat-bottom 96-well plate to be incubated statically at 37 °C with aeration. Studies were mainly performed with S. aureus Mu50.
as §1

[3] = test system: Acinetobacter baumannii ATCC 747; test: MIC determination (microbroth dilution); type: cell-based; conditions: colistin alone
Procedure: as §2, §1

[4] = test system: actively replicating MRSA strain Mu50; test: Killing kinetics, actively replicating cells (CFU plating); type: cell-based, Staphylococcus aureus; conditions: MHB, start 10^6 CFU/mL; PPs at 4× MIC, moxifloxacin 20 μM; detection limit 10^2 CFU/mL
Procedure: S. aureus cells were freshly incubated in MHB until an OD600 nm of approx. 0.6 was reached. Next, the cells were diluted to 10^6 CFU/mL in 5 mL MHB. […] At certain time points (0, 0.5, 1, 3, 6, 8, 24 h), 100 μL was removed from the culture, diluted and plated onto MHA plates. After 24-h incubation, colonies were counted and viability (expressed as colony-forming units per mL (CFU/mL)) was calculated considering the dilution factor.

pre-formed MRSA biofilms = test: Biofilm viability by CFU plating; type: cell-based, Staphylococcus aureus; conditions: 24 h of treatment, 4× minimal biofilm inhibitory concentration, moxifloxacin 20 μM
Procedure: Additionally, biofilm viability was quantified by CFU plating. Biofilms were pregrown as described above and treated for 24 h with 4× minimal biofilm inhibitory concentrations as calculated from the Resazurin reduction assay. Biofilms were dispersed by pipetting followed by sonification in a water bath. Dilutions were plated on Mueller-Hinton agar plates and incubated overnight at 37 °C.

CCCCCCCCCCCCCCCCn1cc[n+](Cc2ccccc2)c1C.[I-] [NH125, reference compound]
time until viability reduced to the detection limit ([1]; PPs at 4× MIC, NH125 10 μM, detection limit 10^2 CFU/mL): ~3 h

colistin [reference compound]
growth of gram-negative bacteria (gram-negative bacteria): not inhibited | MIC [2]: 0.78 μM and 0.90 μg/mL | MIC [3]: 0.78 μM and 0.90 μg/mL

COc1c(N2C[C@@H]3CCCN[C@@H]3C2)c(F)cc2c(=O)c(C(=O)O)cn(C3CC3)c12 [moxifloxacin, reference compound]
decrease of viability of persistent cells after 24 h ([1]; 3-bromo-PP at 4× MIC, moxifloxacin control, 24 h): did not show any effect | time until viability reached the detection limit [4]: 3 h | reduction in viable cell counts in biofilms (pre-formed MRSA biofilms): virtually no effect
